Experimental data as given in US10710978B2, “STK4 inhibitors for treatment of hematologic malignancies” (Dana-Farber Cancer Institute, Inc., priority 2015, dated 2020).
Where two headings read alike, the source gives them in different places.

What was measured:
Assay in all cases: KiNativ assay
Assay type in all cases: binding
Details in all cases: H929 live cell
AurA = AurA (Homo sapiens (Human), UniProt O14965)
Procedure: (§1) Biochemical IC50s of the compounds of the present disclosure against various kinases were measured in a KiNativ assay. Compounds were screened in duplicate at 10 μM in H929 live cell. IC50 was measured via Mass spectroscopy (MS).

CDC2 = CDC2 (Homo sapiens (Human), UniProt P06493)
Procedure: as §1

CK1a = CK1a (Homo sapiens (Human), UniProt P48729)
Procedure: as §1

CLK2 = CLK2 (Homo sapiens (Human), UniProt P49760)
Procedure: as §1

CaMK2d = CaMK2d (Homo sapiens (Human), UniProt Q13557)
Procedure: as §1

DGKH = DGKH (Homo sapiens (Human), UniProt Q86XP1)
Procedure: as §1

Erk2 = Erk2 (Homo sapiens (Human), UniProt P28482)
Procedure: as §1

FER = FER (Homo sapiens (Human), UniProt P16591)
Procedure: as §1

FRAP = FRAP (Homo sapiens (Human), UniProt P42345)
Procedure: as §1

GCK = GCK (Homo sapiens (Human), UniProt Q12851)
Procedure: as §1

ILK = ILK (Homo sapiens (Human), UniProt Q13418)
Procedure: as §1

JNK1, JNK2, JNK3 = system: JNK1, JNK2, JNK3
Procedure: as §1

MAP2K4 = MAP2K4 (Homo sapiens (Human), UniProt P45985)
Procedure: as §1

MAP2K6 = MAP2K6 (Homo sapiens (Human), UniProt P52564)
Procedure: as §1

MAP3K4 = MAP3K4 (Homo sapiens (Human), UniProt Q9Y6R4)
Procedure: as §1

MARK2, MARK3 = system: MARK2, MARK3
Procedure: as §1

MASTL = MASTL (Homo sapiens (Human), UniProt Q96GX5)
Procedure: as §1

MST3 = MST3 (Homo sapiens (Human), UniProt Q9Y6E0)
Procedure: as §1

MST4 = system: MST4
Procedure: as §1

OSR1 = OSR1 (Homo sapiens (Human), UniProt O95747)
Procedure: as §1

PFTAIRE1 = PFTAIRE1 (Homo sapiens (Human), UniProt O94921)
Procedure: as §1

PI4KB = PI4KB (Homo sapiens (Human), UniProt Q9UBF8)
Procedure: as §1

PIP5K3 = PIP5K3 (Homo sapiens (Human), UniProt Q9Y2I7)
Procedure: as §1

PITSLRE = system: PITSLRE
Procedure: as §1

PLK1 = PLK1 (Homo sapiens (Human), UniProt P53350)
Procedure: as §1

RSKL1 = RSKL1 (Homo sapiens (Human), UniProt Q96S38)
Procedure: as §1

SGK3 = SGK3 (Homo sapiens (Human), UniProt Q96BR1)
Procedure: as §1

SRPK1 = SRPK1 (Homo sapiens (Human), UniProt Q96SB4)
Procedure: as §1

TBK1 = TBK1 (Homo sapiens (Human), UniProt Q9UHD2)
Procedure: as §1

TLK1 = TLK1 (Homo sapiens (Human), UniProt Q9UKI8)
Procedure: as §1

TYK2 domain2 = TYK2 domain2 (Homo sapiens (Human), UniProt P29597)
Procedure: as §1

eEF2K = eEF2K (Homo sapiens (Human), UniProt O00418)
Procedure: as §1

p38d, p38g = system: p38d, p38g
Procedure: as §1

Sequence of AurA (O14965 whole entry): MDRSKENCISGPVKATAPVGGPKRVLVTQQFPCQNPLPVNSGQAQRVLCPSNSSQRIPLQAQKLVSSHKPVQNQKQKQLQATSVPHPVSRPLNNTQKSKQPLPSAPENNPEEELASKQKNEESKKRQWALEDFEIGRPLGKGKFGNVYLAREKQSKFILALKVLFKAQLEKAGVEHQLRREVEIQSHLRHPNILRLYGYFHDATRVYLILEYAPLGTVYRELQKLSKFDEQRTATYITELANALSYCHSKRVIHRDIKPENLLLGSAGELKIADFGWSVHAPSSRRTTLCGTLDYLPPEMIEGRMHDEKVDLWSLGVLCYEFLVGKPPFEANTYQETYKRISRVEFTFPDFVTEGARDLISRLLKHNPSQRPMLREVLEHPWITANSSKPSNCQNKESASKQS
Sequence of CaMK2d (Q13557 whole entry): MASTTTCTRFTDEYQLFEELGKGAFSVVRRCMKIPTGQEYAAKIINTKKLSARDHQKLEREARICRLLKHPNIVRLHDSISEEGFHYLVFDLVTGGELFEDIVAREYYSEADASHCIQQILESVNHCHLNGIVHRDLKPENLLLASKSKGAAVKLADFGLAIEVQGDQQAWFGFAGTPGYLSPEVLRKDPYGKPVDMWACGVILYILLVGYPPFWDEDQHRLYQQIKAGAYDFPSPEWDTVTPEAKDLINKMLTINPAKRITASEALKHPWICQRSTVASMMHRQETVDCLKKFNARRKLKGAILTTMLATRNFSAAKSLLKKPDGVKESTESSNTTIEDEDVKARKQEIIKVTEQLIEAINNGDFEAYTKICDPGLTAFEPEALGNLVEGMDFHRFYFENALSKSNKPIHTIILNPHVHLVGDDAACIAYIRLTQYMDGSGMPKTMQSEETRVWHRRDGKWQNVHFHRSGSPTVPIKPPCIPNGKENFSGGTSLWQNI
Sequence of CK1a (P48729 whole entry): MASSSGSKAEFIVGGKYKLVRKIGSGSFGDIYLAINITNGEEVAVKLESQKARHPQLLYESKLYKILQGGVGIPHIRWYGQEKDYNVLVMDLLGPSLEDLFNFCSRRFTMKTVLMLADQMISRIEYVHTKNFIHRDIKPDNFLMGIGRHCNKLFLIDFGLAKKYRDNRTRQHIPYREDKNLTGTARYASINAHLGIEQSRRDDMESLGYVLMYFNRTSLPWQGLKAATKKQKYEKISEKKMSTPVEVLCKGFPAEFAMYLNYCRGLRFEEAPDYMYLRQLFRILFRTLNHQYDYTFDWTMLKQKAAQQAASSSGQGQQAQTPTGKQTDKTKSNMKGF
Sequence of TBK1 (Q9UHD2 whole entry): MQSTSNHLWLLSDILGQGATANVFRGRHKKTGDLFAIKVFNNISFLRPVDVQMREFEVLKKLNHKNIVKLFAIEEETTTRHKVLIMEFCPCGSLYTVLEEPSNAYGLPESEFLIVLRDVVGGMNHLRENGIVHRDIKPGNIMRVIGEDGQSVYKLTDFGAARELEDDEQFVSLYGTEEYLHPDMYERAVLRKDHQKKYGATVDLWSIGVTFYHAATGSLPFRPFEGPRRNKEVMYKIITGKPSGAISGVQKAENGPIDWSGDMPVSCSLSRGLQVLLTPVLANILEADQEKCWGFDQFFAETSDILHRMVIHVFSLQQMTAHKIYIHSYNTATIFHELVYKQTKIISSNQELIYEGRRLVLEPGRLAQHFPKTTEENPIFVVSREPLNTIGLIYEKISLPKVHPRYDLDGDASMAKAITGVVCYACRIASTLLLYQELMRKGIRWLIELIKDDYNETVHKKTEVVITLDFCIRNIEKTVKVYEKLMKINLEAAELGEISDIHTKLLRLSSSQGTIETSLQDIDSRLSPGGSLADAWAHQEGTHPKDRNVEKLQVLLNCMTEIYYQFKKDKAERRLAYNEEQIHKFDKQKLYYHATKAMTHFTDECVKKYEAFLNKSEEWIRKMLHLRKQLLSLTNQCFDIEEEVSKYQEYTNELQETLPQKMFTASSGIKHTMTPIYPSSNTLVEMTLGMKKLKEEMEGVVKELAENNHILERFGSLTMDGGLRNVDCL
Sequence of TLK1 (Q9UKI8 whole entry): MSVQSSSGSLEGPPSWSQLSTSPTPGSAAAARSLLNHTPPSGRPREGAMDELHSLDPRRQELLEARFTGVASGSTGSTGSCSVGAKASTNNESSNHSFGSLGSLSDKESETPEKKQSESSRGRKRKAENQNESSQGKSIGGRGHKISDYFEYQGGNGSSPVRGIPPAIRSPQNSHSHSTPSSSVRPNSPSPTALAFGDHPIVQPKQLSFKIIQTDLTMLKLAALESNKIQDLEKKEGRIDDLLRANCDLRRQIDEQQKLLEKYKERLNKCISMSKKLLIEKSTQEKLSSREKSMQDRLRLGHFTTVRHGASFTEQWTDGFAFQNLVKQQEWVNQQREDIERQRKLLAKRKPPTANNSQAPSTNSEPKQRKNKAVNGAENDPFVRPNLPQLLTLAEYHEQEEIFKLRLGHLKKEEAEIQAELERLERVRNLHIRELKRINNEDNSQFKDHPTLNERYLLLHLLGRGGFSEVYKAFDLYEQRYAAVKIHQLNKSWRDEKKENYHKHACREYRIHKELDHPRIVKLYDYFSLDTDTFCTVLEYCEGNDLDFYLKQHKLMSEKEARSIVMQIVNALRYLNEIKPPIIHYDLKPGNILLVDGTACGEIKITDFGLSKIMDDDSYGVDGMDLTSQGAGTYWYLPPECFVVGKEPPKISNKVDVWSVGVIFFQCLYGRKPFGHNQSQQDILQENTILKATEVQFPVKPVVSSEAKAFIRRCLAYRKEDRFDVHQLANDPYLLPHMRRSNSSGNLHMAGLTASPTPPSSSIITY
Sequence of DGKH (Q86XP1 whole entry): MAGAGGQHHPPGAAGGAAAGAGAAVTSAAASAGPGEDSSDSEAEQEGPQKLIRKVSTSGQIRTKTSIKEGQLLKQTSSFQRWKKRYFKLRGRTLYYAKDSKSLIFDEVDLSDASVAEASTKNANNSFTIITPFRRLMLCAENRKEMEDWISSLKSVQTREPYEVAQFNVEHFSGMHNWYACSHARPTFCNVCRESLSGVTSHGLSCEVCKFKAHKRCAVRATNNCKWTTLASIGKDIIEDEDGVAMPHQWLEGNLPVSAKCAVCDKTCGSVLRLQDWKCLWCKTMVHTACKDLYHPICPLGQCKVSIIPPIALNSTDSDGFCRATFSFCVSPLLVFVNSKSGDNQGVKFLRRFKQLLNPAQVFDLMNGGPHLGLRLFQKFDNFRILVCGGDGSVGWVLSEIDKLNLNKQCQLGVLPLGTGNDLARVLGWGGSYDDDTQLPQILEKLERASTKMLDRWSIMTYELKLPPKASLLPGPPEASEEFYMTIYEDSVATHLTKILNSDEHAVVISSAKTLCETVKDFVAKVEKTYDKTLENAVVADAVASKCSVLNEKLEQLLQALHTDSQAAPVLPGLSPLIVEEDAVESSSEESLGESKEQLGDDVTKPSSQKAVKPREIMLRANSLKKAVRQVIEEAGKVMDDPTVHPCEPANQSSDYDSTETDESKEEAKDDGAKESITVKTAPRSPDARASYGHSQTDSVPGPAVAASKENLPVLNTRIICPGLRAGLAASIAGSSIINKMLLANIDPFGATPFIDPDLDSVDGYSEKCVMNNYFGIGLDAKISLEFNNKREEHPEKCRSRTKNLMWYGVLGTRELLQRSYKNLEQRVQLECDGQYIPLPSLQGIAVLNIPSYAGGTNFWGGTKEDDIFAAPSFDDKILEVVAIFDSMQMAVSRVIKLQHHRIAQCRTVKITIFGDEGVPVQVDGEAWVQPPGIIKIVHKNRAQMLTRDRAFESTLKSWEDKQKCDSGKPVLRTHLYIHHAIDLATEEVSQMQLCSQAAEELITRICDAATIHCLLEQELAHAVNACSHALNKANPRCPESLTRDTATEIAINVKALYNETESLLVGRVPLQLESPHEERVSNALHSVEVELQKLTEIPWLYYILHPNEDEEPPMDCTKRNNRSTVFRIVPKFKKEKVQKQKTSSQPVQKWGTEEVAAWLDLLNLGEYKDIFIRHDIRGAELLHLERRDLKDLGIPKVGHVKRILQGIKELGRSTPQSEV
Sequence of SGK3 (Q96BR1 whole entry): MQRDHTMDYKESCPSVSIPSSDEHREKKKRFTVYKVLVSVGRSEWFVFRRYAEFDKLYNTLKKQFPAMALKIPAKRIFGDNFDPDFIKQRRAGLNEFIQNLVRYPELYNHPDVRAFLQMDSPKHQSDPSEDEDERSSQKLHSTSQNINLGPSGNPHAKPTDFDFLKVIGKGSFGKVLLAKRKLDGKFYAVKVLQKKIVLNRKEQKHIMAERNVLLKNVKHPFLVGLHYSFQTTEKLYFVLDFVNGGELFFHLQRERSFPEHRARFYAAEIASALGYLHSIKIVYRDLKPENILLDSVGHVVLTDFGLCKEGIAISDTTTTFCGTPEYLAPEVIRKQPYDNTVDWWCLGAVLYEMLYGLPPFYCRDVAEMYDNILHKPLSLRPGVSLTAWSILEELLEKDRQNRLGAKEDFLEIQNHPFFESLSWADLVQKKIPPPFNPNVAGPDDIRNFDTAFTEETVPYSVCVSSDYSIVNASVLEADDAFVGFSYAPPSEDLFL
Sequence of MST3 (Q9Y6E0 whole entry): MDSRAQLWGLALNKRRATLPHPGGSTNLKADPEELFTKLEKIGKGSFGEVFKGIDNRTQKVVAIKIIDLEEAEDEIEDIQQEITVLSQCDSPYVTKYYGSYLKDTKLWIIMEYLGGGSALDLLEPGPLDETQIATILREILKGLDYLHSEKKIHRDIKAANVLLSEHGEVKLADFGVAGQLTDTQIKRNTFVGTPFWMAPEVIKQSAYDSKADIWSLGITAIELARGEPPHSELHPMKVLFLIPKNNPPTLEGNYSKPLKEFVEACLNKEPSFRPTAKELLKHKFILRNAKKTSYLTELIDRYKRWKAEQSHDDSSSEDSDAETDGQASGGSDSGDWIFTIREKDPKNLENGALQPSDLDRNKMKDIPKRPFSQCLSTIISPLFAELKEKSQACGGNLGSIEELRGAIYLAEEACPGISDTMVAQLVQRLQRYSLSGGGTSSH

Q: `Nc1ncc(-c2cccc3ncsc23)cc1-c1ccc2c(c1)CCNC2=O` [Compound I-13, 6-(2-amino-5-(benzo[d]thiazol-7-yl)pyridin-3-yl)-3,4-dihydroisoquinolin-1(2H)-one] was tested. Which “inhibition (10 μM)” value (AurA) did it give?
A: 14.7%

Q: And the inhibition at 10 µM (AurA; read-out: % inhibition (range))?
A: 0%

Q: What about the inhibition at 10 µM (AurA; read-out: inhibition (10 μM)) of the same compound?
A: 17.4%

Q: And the inhibition at 10 µM (CDC2; read-out: % inhibition (range))?
A: 0%

Q: What about the inhibition at 10 µM (CDC2; read-out: inhibition (10 μM)) of the same compound?
A: -15%

Q: What about the inhibition at 10 µM (CK1a; read-out: % inhibition (range)) of the same compound?
A: 0%

Q: And the inhibition at 10 µM (CK1a; read-out: inhibition (10 μM))?
A: -17.4%

Q: And the inhibition at 10 µM (CLK2; read-out: % inhibition (range))?
A: 0%

Q: What about the inhibition at 10 µM (CLK2; read-out:) of the same compound?
A: 19.1%

Q: And the inhibition at 10 µM (CaMK2d; read-out: % inhibition (range))?
A: 0%

Q: And the inhibition at 10 µM (CaMK2d; read-out: inhibition (10 μM))?
A: -4.3%

Q: And the inhibition at 10 µM (DGKH; read-out: % inhibition (range))?
A: 0%

Q: And the inhibition at 10 µM (DGKH; read-out: inhibition (10 μM))?
A: 25.7%

Q: What about the inhibition at 10 µM (Erk2; read-out: % inhibition (range)) of the same compound?
A: 50 to 75%

Q: And the inhibition at 10 µM (Erk2; read-out: inhibition (10 μM))?
A: 74.6%

Q: What about the inhibition at 10 µM (FER; read-out: % inhibition (range)) of the same compound?
A: 0%

Q: What about the inhibition at 10 µM (FER; read-out: inhibition (10 μM)) of the same compound?
A: 4.2%

Q: And the inhibition at 10 µM (FRAP; read-out: % inhibition (range))?
A: 0%

Q: And the inhibition at 10 µM (FRAP; read-out: inhibition (10 μM))?
A: 32.5%

Q: And the inhibition at 10 µM (GCK; read-out: % inhibition (range))?
A: 75 to 90%

Q: And the inhibition at 10 µM (GCK; read-out: inhibition (10 μM))?
A: 77.3%

Q: What about the inhibition at 10 µM (ILK; read-out: % inhibition (range)) of the same compound?
A: 0%

Q: And the inhibition at 10 µM (ILK; read-out: inhibition (10 μM))?
A: 1.6%

Q: What about the “% inhibition (range)” value (JNK1, JNK2, JNK3; 10 μM) of the same compound?
A: 0.0%

Q: And the “inhibition (10 μM)” value (JNK1, JNK2, JNK3)?
A: 6.0%

Q: And the inhibition at 10 µM (MAP2K4; read-out: % inhibition (range))?
A: 35 to 50%

Q: And the inhibition at 10 µM (MAP2K4; read-out: inhibition (10 μM))?
A: 48.2%

Q: And the inhibition at 10 µM (MAP2K6; read-out: % inhibition (range))?
A: 0%

Q: And the inhibition at 10 µM (MAP2K6; read-out: inhibition (10 μM))?
A: 4.3%

Q: And the inhibition at 10 µM (MAP3K4; read-out: % inhibition (range))?
A: 0%

Q: What about the inhibition at 10 µM (MAP3K4; read-out: inhibition (10 μM)) of the same compound?
A: 3%

Q: And the “% inhibition (range)” value (MARK2, MARK3; 10 μM)?
A: 0.0%

Q: And the “inhibition (10 μM)” value (MARK2, MARK3)?
A: 14.8%

Q: And the inhibition at 10 µM (MASTL; read-out: % inhibition (range))?
A: 0%

Q: What about the inhibition at 10 µM (MASTL; read-out: inhibition (10 μM)) of the same compound?
A: -2%

Q: What about the inhibition at 10 µM (MST3; read-out: % inhibition (range)) of the same compound?
A: 0%

Q: And the inhibition at 10 µM (MST3; read-out: inhibition (10 μM))?
A: -1.8%

Q: What about the “% inhibition (range)” value (MST4; 10 μM) of the same compound?
A: 0.0%

Q: And the “inhibition (10 μM)” value (MST4)?
A: 29.3%

Q: And the inhibition at 10 µM (OSR1; read-out: % inhibition (range))?
A: 0%

Q: What about the inhibition at 10 µM (OSR1; read-out: inhibition (10 μM)) of the same compound?
A: 1.4%

Q: And the inhibition at 10 µM (PFTAIRE1; read-out: % inhibition (range))?
A: 35 to 50%

Q: What about the inhibition at 10 µM (PFTAIRE1; read-out: inhibition (10 μM)) of the same compound?
A: 49.2%

Q: And the inhibition at 10 µM (PI4KB; read-out: % inhibition (range))?
A: 0%

Q: And the inhibition at 10 µM (PI4KB; read-out: inhibition (10 μM))?
A: 34.8%

Q: And the inhibition at 10 µM (PIP5K3; read-out: % inhibition (range))?
A: > 90%

Q: And the inhibition at 10 µM (PIP5K3; read-out: inhibition (10 μM))?
A: 92.5%

Q: And the “% inhibition (range)” value (PITSLRE; 10 μM)?
A: 0.0%

Q: And the “inhibition (10 μM)” value (PITSLRE)?
A: −3.6%

Q: What about the inhibition at 10 µM (PLK1; read-out: % inhibition (range)) of the same compound?
A: 0%

Q: And the inhibition at 10 µM (PLK1; read-out: inhibition (10 μM))?
A: 6.6%

Q: And the inhibition at 10 µM (RSKL1; read-out: % inhibition (range))?
A: 0%

Q: And the inhibition at 10 µM (RSKL1; read-out: inhibition (10 μM))?
A: 1.6%

Q: What about the inhibition at 10 µM (SGK3; read-out: % inhibition (range)) of the same compound?
A: 0%

Q: What about the inhibition at 10 µM (SGK3; read-out: inhibition (10 μM)) of the same compound?
A: 13.1%

Q: And the inhibition at 10 µM (SRPK1; read-out: % inhibition (range))?
A: 0%

Q: And the inhibition at 10 µM (SRPK1; read-out: inhibition (10 μM))?
A: 10.8%

Q: And the inhibition at 10 µM (TBK1; read-out: % inhibition (range))?
A: 0%

Q: And the inhibition at 10 µM (TBK1; read-out: inhibition (10 μM))?
A: -23.1%

Q: What about the inhibition at 10 µM (TLK1; read-out: % inhibition (range)) of the same compound?
A: 0%

Q: What about the inhibition at 10 µM (TLK1; read-out: inhibition (10 μM)) of the same compound?
A: 8.6%

Q: What about the inhibition at 10 µM (TYK2 domain2; read-out: % inhibition (range)) of the same compound?
A: 0%

Q: What about the inhibition at 10 µM (TYK2 domain2; read-out: inhibition (10 μM)) of the same compound?
A: 0.6%

Q: And the inhibition at 10 µM (eEF2K; read-out: % inhibition (range))?
A: 0%

Q: And the inhibition at 10 µM (eEF2K; read-out: inhibition (10 μM))?
A: -45.5%

Q: And the “% inhibition (range)” value (p38d, p38g; 10 μM)?
A: 0.0%

Q: And the “inhibition (10 μM)” value (p38d, p38g)?
A: −43.7%
